pIC50: −log10 of the molar value. Where “and” joins values, the source holds several entries; their conditions need not be identical. Identical values can stand only once.
Tested on: 422866-222-R5-J1-PDC complex spheroids viability
Assay: Anticancer human tumor 422866-222-R5-J1-PDC patient-derived pancreatic adenocarcinoma cell line growth inhibition [RAS]
Conditions: for viability, T/C: stronger effect = lower value
Method in brief: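 Multi-cell-type spheroids: tumor cells plus HUVEC endothelial cells and mesenchymal stem cells. RAS-pathway inhibitors were combined with targeted agents, each dosed in half-log steps down from clinical Cmax, or from 10 microM when Cmax was unknown.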

[1] = curve of first compound, second compound 0.0316 µM
[2] = curve of first compound, second compound 0.1 µM
[3] = curve of first compound, second compound 0.316 µM
[4] = curve of first compound, second compound 1 µM
[5] = second compound 0.0316 µM, first compound 0.0316 µM
[6] = second compound 0.0316 µM, first compound 0.1 µM
[7] = second compound 0.1 µM, first compound 0.0316 µM
[8] = second compound 0.1 µM, first compound 0.1 µM
[9] = second compound 0.316 µM, first compound 0.0316 µM
[10] = second compound 0.316 µM, first compound 0.1 µM
[11] = second compound 1 µM, first compound 0.0316 µM
[12] = second compound 1 µM, first compound 0.1 µM
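Also: spheroids exposed to compounds for 7 days.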
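For viability, T/C in this document: 100% = DMSO vehicle control viability.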

Structure (SMILES): CC(Nc1ccc2c(c1)OCCn1cc(N3C(=O)OCC3C(F)F)nc1-2)C(N)=O (centres undefined) + C#Cc1c(F)ccc2cc(O)cc(-c3ncc4c(N5CC6CCC(C5)N6)nc(OCC56CCCN5CC(F)C6)nc4c3F)c12
- pIC50 [1]: 7.03
- pIC50 [2]: 7.09
- pIC50 [3]: 7.48
- pIC50 [4]: > 7.50
- pIC50 (curve of first compound, second compound 3.16 µM): > 7.50
- pIC50 (curve of first compound, second compound 10 µM): > 7.50
- viability, T/C [5]: 77%
- viability, T/C [6]: 46.7%
- viability, T/C (second compound 0.0316 µM, first compound 0.316 µM): 33.1%
- viability, T/C (second compound 0.0316 µM, first compound 1 µM): 37.9%
- viability, T/C (second compound 0.0316 µM, first compound 3.16 µM): 26.1%
- viability, T/C (second compound 0.0316 µM, first compound 10 µM): 22.2%
- viability, T/C [7]: 73.3%
- viability, T/C [8]: 44.8%
- viability, T/C (second compound 0.1 µM, first compound 0.316 µM): 30.9%
- viability, T/C (second compound 0.1 µM, first compound 1 µM): 24.7%
- viability, T/C (second compound 0.1 µM, first compound 3.16 µM): 23%
- viability, T/C (second compound 0.1 µM, first compound 10 µM): 19.9%
- viability, T/C [9]: 50.6%
- viability, T/C [10]: 38.6%
- viability, T/C (second compound 0.316 µM, first compound 0.316 µM): 29.8%
- viability, T/C (second compound 0.316 µM, first compound 1 µM): 21.6%
- viability, T/C (second compound 0.316 µM, first compound 3.16 µM): 19%
- viability, T/C (second compound 0.316 µM, first compound 10 µM): 18.7%
- viability, T/C [11]: 37.3%
- viability, T/C [12]: 26.5%
- viability, T/C (second compound 1 µM, first compound 0.316 µM): 22.5%
- viability, T/C (second compound 1 µM, first compound 1 µM): 14.5%
- viability, T/C (second compound 1 µM, first compound 3.16 µM): 13.6%
- viability, T/C (second compound 1 µM, first compound 10 µM): 12.7%
- viability, T/C (second compound 3.16 µM, first compound 0.0316 µM): 22.2%
- viability, T/C (second compound 3.16 µM, first compound 0.1 µM): 19.2%
- viability, T/C (second compound 3.16 µM, first compound 0.316 µM): 13%
- viability, T/C (second compound 3.16 µM, first compound 1 µM): 10.5%
- viability, T/C (second compound 3.16 µM, first compound 3.16 µM): 9.41%
- viability, T/C (second compound 3.16 µM, first compound 10 µM): 9.38%
- viability, T/C (second compound 10 µM, first compound 0.0316 µM): 13.7%
- viability, T/C (second compound 10 µM, first compound 0.1 µM): 11.8%
- viability, T/C (second compound 10 µM, first compound 0.316 µM): 8.74%
- viability, T/C (second compound 10 µM, first compound 1 µM): 6.04%
- viability, T/C (second compound 10 µM, first compound 3.16 µM): 7.1%
- viability, T/C (second compound 10 µM, first compound 10 µM): 7.04%

Structure (SMILES): C=CC(=O)Nc1cc(Nc2nccc(-c3cn(C)c4ccccc34)n2)c(OC)cc1N(C)CCN(C)C
- viability, T/C (compound 0.00316 µM): 106% [middle of 4 runs]
- viability, T/C (compound 0.01 µM): 74.7% and 114% (2×) and 81.9%
- viability, T/C (compound 0.0316 µM): 87.1% [middle of 4 runs]
- viability, T/C (compound 0.316 µM): 77.7% [middle of 4 runs]
- pIC50 (curve of compound): < 6.00

Structure (SMILES): CC(C)n1nc(-c2ccc3oc(N)nc3c2)c2c(N)ncnc21 + C=CC(=O)N1CCN(c2nc(OCC3CCCN3C)nc3c(F)c(-c4nc(N)cc(C)c4C(F)(F)F)c(Cl)cc23)C(C)C1
- pIC50 (curve of first compound, second compound 0.00316 µM): > 9.50
- pIC50 (curve of first compound, second compound 0.01 µM): > 9.50
- pIC50 [1]: > 9.50
- pIC50 [2]: > 9.50
- pIC50 [3]: > 9.50
- pIC50 [4]: > 9.50
- viability, T/C (second compound 0.00316 µM, first compound 0.000316 µM): 34.9%
- viability, T/C (second compound 0.00316 µM, first compound 0.001 µM): 35.1%
- viability, T/C (second compound 0.00316 µM, first compound 0.00316 µM): 30.5%
- viability, T/C (second compound 0.00316 µM, first compound 0.01 µM): 23.2%
- viability, T/C (second compound 0.00316 µM, first compound 0.0316 µM): 18.3%
- viability, T/C (second compound 0.00316 µM, first compound 0.1 µM): 14.8%
- viability, T/C (second compound 0.01 µM, first compound 0.000316 µM): 30.3%
- viability, T/C (second compound 0.01 µM, first compound 0.001 µM): 28.9%
- viability, T/C (second compound 0.01 µM, first compound 0.00316 µM): 22.9%
- viability, T/C (second compound 0.01 µM, first compound 0.01 µM): 19.9%
- viability, T/C (second compound 0.01 µM, first compound 0.0316 µM): 14.3%
- viability, T/C (second compound 0.01 µM, first compound 0.1 µM): 14.1%
- viability, T/C (second compound 0.0316 µM, first compound 0.000316 µM): 29.9%
- viability, T/C (second compound 0.0316 µM, first compound 0.001 µM): 26.5%
- viability, T/C (second compound 0.0316 µM, first compound 0.00316 µM): 23.4%
- viability, T/C (second compound 0.0316 µM, first compound 0.01 µM): 18.2%
- viability, T/C [5]: 14%
- viability, T/C [6]: 12.3%
- viability, T/C (second compound 0.1 µM, first compound 0.000316 µM): 25.5%
- viability, T/C (second compound 0.1 µM, first compound 0.001 µM): 22.9%
- viability, T/C (second compound 0.1 µM, first compound 0.00316 µM): 18.1%
- viability, T/C (second compound 0.1 µM, first compound 0.01 µM): 18.3%
- viability, T/C [7]: 16.8%
- viability, T/C [8]: 11.3%
- viability, T/C (second compound 0.316 µM, first compound 0.000316 µM): 25%
- viability, T/C (second compound 0.316 µM, first compound 0.001 µM): 20.9%
- viability, T/C (second compound 0.316 µM, first compound 0.00316 µM): 20.6%
- viability, T/C (second compound 0.316 µM, first compound 0.01 µM): 18.1%
- viability, T/C [9]: 13.6%
- viability, T/C [10]: 10.5%
- viability, T/C (second compound 1 µM, first compound 0.000316 µM): 21.3%
- viability, T/C (second compound 1 µM, first compound 0.001 µM): 20.2%
- viability, T/C (second compound 1 µM, first compound 0.00316 µM): 24.6%
- viability, T/C (second compound 1 µM, first compound 0.01 µM): 17.2%
- viability, T/C [11]: 17.3%
- viability, T/C [12]: 13.8%
